Measurements reported in patent EP0742220A2, “Esters of boric acid and their use as perfume” (HAARMANN & REIMER GMBH, priority 1995, dated 1996).

Legend:
Staphylococcus aureus = assay: microtitre plate test on sterile agar, growth inhibition of gram-positive bacteria; assay type: cell-based; conditions: grampositiven Bakterien (z.B. Staphylococcus aureus); Inkubationszeit 3 Tage, Temperatur 37°C
Procedure: (§1) Sowohl gegenüber gramnegativen Bakterien (z.B. Pseudomonas aeruginosa) als auch grampositiven Bakterien (z.B. Staphylococcus aureus) zeigen die beispielhaft genannten Borate eine hervorragende wachstumshemmende Wirkung, was experimentell durch einen sogenannten Mikrotiterplattentest auf sterilem Agar (Inkubationszeit 3 Tage, Temperatur 37°C) dokumentiert werden konnte.

Pseudomonas aeruginosa = assay: microtitre plate test on sterile agar, growth inhibition of gram-negative bacteria; assay type: cell-based; conditions: gramnegativen Bakterien (z.B. Pseudomonas aeruginosa); Inkubationszeit 3 Tage, Temperatur 37°C
Procedure: as §1

SMILES	wachstumshemmende Wirkung (Staphylococcus aureus)	wachstumshemmende Wirkung (Pseudomonas aeruginosa)
CC/C=C\CCOB(OCC/C=C\CC)OCC/C=C\CC [tris-(cis)-3-Hexenylborat]	antimikrobiellen Eigenschaften	antimikrobiellen Eigenschaften
CC(C)=CCC/C(C)=C/COB(OC/C=C(\C)CCC=C(C)C)OC/C=C(\C)CCC=C(C)C [tris-Geranylborat]	antimikrobiellen Eigenschaften	antimikrobiellen Eigenschaften
CC(CC=O)CCCC(C)(C)OB(OC(C)(C)CCCC(C)CC=O)OC(C)(C)CCCC(C)CC=O (centres unmarked) [tris-Hydroxycitronellalborat]	antimikrobiellen Eigenschaften	antimikrobiellen Eigenschaften
C=CC(C)(CCC=C(C)C)OB(OC(C)(C=C)CCC=C(C)C)OC(C)(C=C)CCC=C(C)C (centres unmarked) [tris-Linalylborat]	antimikrobiellen Eigenschaften	antimikrobiellen Eigenschaften
CC(C)=CCC/C(C)=C\COB(OC/C=C(/C)CCC=C(C)C)OC/C=C(/C)CCC=C(C)C [tris-Nerylborat]	antimikrobiellen Eigenschaften	antimikrobiellen Eigenschaften
c1ccc(CCOB(OCCc2ccccc2)OCCc2ccccc2)cc1 [tris-Phenylethylborat]	antimikrobiellen Eigenschaften	antimikrobiellen Eigenschaften
C=CCCCCCCCCCOB(OCCCCCCCCCC=C)OCCCCCCCCCC=C [tris-Undecenylborat]	antimikrobiellen Eigenschaften	antimikrobiellen Eigenschaften
